Earlier results as cited in US20200077661A1, “METHOD AND "IDEPS" COMPOSITION FOR DESTROYING MICROORGANISMS IN A SESSILE STATE” (IDEPS GMBH, priority 2016, published 2020).

System: coagulase-negative staphylococci

In the case of varnerin, the “destruction of the exopolymeric matrix” value (16-128 μg/ml varnerin for 10 μg of biofilm, incubation at 37° C. for 24 hours) is given as “partial destruction”, the bacterial cells die (16-128 μg/ml varnerin for 10 μg of biofilm, incubation at 37° C. for 24 hours, biofilm formed within 24 hours) is given as “up to 30%” and the “bacteria in the young biofilm not eliminated” value (young biofilm (24 hours old)) is given as “up to 70%”.
